Source: patent US20220387398A1, “IMMUNE TO[…] AND POTENTIATORS” (priority 2019, published 2022)

Experiments:
[1] = tested on: ITE degradation in mouse plasma; experiment: Inhibition of ITE degradation in mouse plasma by esterase inhibitors; assay type: biochemical; conditions: for inhibition of ITE degradation (in words, rank): mouse plasma, 1 millimolar benzil, BNPP and tacrine, 0.5 millimolar rivastigmine, pre-incubated 60 minutes
Excerpt: Each inhibitor provided at least some protection from degradation.
FIGS. 3-7 show a mass balance analysis of ITE+ITC in the presence of each inhibitor.

[2] = mouse
Description: Levels of ITE and ITC in mouse plasma were determined by liquid chromatography-mass spectrometry (LC-MS). Standard curves were produced by serial dilution of ITE and ITE and used to convert ion counts to absolute concentrations (FIG. 1A).
Each inhibitor was tested independently for its ability to protect ITE from degradation in 0.5 milliliters of mouse plasma (FIG. 2A).

Row | Compound | inhibition of ITE degradation (in words, rank) [1] | ITE lost ([2]; 30 min) | ITE degraded ([2]; 60 min) | ITE protected from degradation ([1]; 0.5 mL mouse plasma, at 120 minutes, 0.5 millimolar rivastigmine pre-incubated 60 minutes) [%]
1 | O=[N+]([O-])c1ccc(OP(=O)(O)Oc2ccc([N+](=O)[O-])cc2)cc1 [BNPP, bis-para-nitrophenylphosphate] | weaker inhibitors |  |  | 
2 | O=C(C(=O)c1ccccc1)c1ccccc1 [Benzil, benzil] | weakest single inhibitor |  |  | 
3 | COC(=O)c1csc(C(=O)c2c[nH]c3ccccc23)n1 [ITE, 2-(1 H-Indol-3-ylcarbonyl)-4-thiazolecarboxylic acid methyl ester] |  | over 60% | about 90% | 
4 | CCN(C)C(=O)Oc1cccc([C@H](C)N(C)C)c1 [Rivastigmine, rivastigmine] | best inhibitor of ITE degradation |  |  | ~70
5 | Nc1c2c(nc3ccccc13)CCCC2 [Tacrine, tacrine] | weaker inhibitors |  |  | 
